For assay [1], the target named is T1, CTSS (Homo sapiens, UniProt P25774). Nature of the assay: In vitro kinetic evaluation of cathepsin inhibition, fluorescent substrate Z-FR-AMC. The format is biochemical. The note with it: for mode of inhibition: CTSS; for times less potent toward CTSS compared to CTSK: selectivity CTSK over CTSS. The protocol:
(§1) used for TLC. Phosphate Buffer Saline (PBS) was purchased from Biological Industries (pH = […]
(§2) 7.4) and was used as a buffer system in all experiments if not indicated otherwise. […]
(§3) Recombinant human CTSB, CTSK, CTSL, and CTSS were supplied by B. Turk (J.
(§4) Stefan Institute).[1] […]
(§5) In vitro kinetic evaluation of labeling recombinant cathepsins:
(§6) Reactions were monitored for 30 min at 37° C in 96-well black flat-bottom microplates […]
(§7) (Greiner, Germany) using Tecan INFINITE M1000 pro plate reader (Tecan, Switzerland), […]
(§8) substrates Z-RR-AMC (CTSL) or Z-FR-AMC (CTSS, CTSB and CTSK), and excitation and […]
(§9) emission wavelengths of 370 and 460 nm, respectively. Cathepsin concentrations in the assay were 0.4 nM (CTSK) or 5 nM (CTSS, CTSB, and CTSL). The buffer was 100 mM Na2HPO4/NaH2PO4, 50 mM NaCl, 5 mM DTT, 0,1% Peg-6000, pH 6. For irreversible inhibitors, reaction data were fitted to the one-phase association formula in GraphPad Prism 9 software: Y=Y0 + (Plateau-Y0)*(1-exp(-K*X)) where in this case Y0 and Y represent fluorescence signal at times 0 and t, respectively, K represent the observed reaction rate kobs and X the inhibitor concentration. Inactivation rates at each inhibitor concentration were obtained by subtracting the inactivation observed in the control sample: kobs – kctrl. The maximal rate of inactivation (kinact) was obtained as the asymptote from equation Y = kinact*X/(Kiapp + X) where X is inhibitor concentration, Y is the observed inactivation rate for each X, and Kiapp is the apparent inhibition constant. Ki values were calculated from IC50 or from Kiapp using formulas Ki = Kiapp / (1 + Km/S) and IC50 = E0/2 + Kiapp, where Km stands for Michalis-Menten constant, S for substrate concentration and E0 for cathepsin concentration.
(§10) The highest inhibitor concentrations in the assay were 50 µM. Measurements were performed in several independent duplicates. Average values are presented with standard deviations. […]

The target in assay [2] is CTSL (Homo sapiens, UniProt P07711). Nature of the assay: In vitro kinetic evaluation of cathepsin inhibition, fluorescent substrate Z-RR-AMC. In kind it is biochemical. The note with it: for mode of inhibition: CTSL; for Ki: CTSL 5 nM, pH 6, 37 °C. On the procedure:
as §1, §2, §3, §4, §5, §6, §7, §8, §9, §10
µM) were pretreated with different concentrations of probes (GD32, GD36, GD37, or GD42)

The target of assay [3] is T1, CTSS. Nature of the assay: Recombinant cathepsin labeling by ABPs, in-gel fluorescence. In kind it is binding. The settings on record: increasing probe concentrations, 1 h. On the procedure: The ABPs were tested for binding to recombinant CTSK compared to the closely related CTSB, CTSL, and CTSS, which are highly abundant and active in most biological samples. Using the in‐gel fluorescent analysis that detects the stable enzyme‐probe complex, active CTSK was labeled with each of the four probes, and significant selectivity was found in three probes GD32, GD37, and GD42 (Figure 1a). […] However, the minimum amount of active CTSK the remaining probes detected was much higher, ranging from 8 to 70 ngs, (Figure 1b).
Figure 1 In vitro evaluation of CTSK targeted compounds. a) Labeling of recombinant cathepsins by ABPs. Recombinant cathepsins were treated with increasing concentrations of ABPs for 1 h. Samples were separated by SDS‐PAGE and scanned for fluorescence by a Typhoon scanner at 635/670 nm. All probes show dose‐dependent binding to the CTSK, and have lower affinity to CTSS except GD36, b) CTSK [0.5–280 ng] was labeled with the indicated ABPs [5 µM]. Incubations were performed for 1 h at 37 °C, at pH 5.5. Samples were analyzed as described in (a). c) Recombinant cathepsins B, K, L, and S [0.5 µM] were first treated with the indicated concentrations of the inhibitor GD30 or vehicle for 1 h followed by incubation with a pan cathepsin probe GB123 [1 µM] for 1 h. Samples were analyzed as described in (a). d) Quantitative analysis of CTSK inhibition by GD30 presented in (d), data represent mean values ± standard error, n = 3. e) IC50 plot of GD30 inhibition of CTSK activity. […]
emission wavelengths of 370 and 460 nm, respectively. Cathepsin concentrations in the assay were 0.4 nM (CTSK) or 5 nM (CTSS, CTSB, and CTSL). […] For irreversible inhibitors, reaction data were fitted to the one-phase association formula in GraphPad Prism 9 software: Y=Y0 + (Plateau-Y0)*(1-exp(-K*X)) where in this case Y0 and Y represent fluorescence signal at times 0 and t, respectively, K represent the observed reaction rate kobs and X the inhibitor concentration. […]
reaction was stopped and samples were analyzed as described above. […]

Experimental findings from paper PMC11481179, “Development and Application of Reversible and Irreversible Covalent Probes for Human and Mouse Cathepsin‐K Activity Detection, Revealing Nuclear Activity” (Advanced Science, 2024) are described below.

The structures appear in SMILES notation.

T1 sequence (P25774 115-331): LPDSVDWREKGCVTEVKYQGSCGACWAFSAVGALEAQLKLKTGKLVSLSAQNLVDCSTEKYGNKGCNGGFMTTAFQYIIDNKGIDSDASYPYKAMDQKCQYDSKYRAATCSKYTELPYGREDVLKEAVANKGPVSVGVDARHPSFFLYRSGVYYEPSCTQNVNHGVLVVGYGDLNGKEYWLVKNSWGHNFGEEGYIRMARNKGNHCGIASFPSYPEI
Sequence of CTSL (P07711 114-333): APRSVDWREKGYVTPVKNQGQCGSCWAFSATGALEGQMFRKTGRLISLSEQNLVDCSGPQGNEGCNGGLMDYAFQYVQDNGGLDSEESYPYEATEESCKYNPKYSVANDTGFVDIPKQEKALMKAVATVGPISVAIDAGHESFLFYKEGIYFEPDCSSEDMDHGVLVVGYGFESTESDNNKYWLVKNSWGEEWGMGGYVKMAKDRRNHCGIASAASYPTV

In general, Ki refers to a measure of affinity in units of concentration, obtained from inhibition or displacement. Low readings indicate tighter binding, high ones weaker binding. For orientation: kinact means the rate constant of inactivation at saturating inhibitor. Consider `C#CCNC(=O)[C@H](CC(C)C)N[C@@H](c1ccc(-c2ccc(S(=O)(=O)CCNC(=O)CCCCC[N+]3=C(/C=C/C=C/C=C4/N(C)c5ccc(S(=O)(=O)O)cc5C4(C)C)C(C)(C)c4cc(S(=O)(=O)O)ccc43)cc2)cc1)C(F)(F)F` [GD32], for which, in assay [1], the mode of inhibition entry is on record as “Irreversible” and the “times less potent toward CTSS compared to CTSK” value is 115 times. Further, in assay [1] (CTSS 5 nM, pH 6, 37 °C), the affinity, expressed as Ki, was 0.98 µM; the inactivation rate constant (kinact) was 0.0022 ± 0.00009 s⁻¹; the kinact/Ki came to 2220 ± 300 M⁻¹ s⁻¹. In assay [2], the mode of inhibition entry was “Reversible” and affinity was put at a Ki of 20 µM. For the same compound, in assay [3], the “labeling of CTSS relative to CTSK” value is “only labeled CTSS at higher concentrations”.
As for `CC(C)C[C@H](N[C@@H](c1ccc(-c2ccc(S(=O)(=O)CCNC(=O)CCCCC[N+]3=C(/C=C/C=C/C=C4/N(C)c5ccc(S(=O)(=O)O)cc5C4(C)C)C(C)(C)c4cc(S(=O)(=O)O)ccc43)cc2)cc1)C(F)(F)F)C(=O)NC1(C#N)CC1` [GD37], in assay [1], the mode of inhibition result is given as “Reversible” and the “times less potent toward CTSS compared to CTSK” value is 150 times. Also, the Ki in assay [1] (CTSS 5 nM, pH 6, 37 °C) was 0.06 µM. Also, in assay [2], the mode of inhibition result is on record as “Reversible” and the affinity corresponds to a Ki of 1.2 µM. In addition, in assay [3], the “labeling of CTSS relative to CTSK” value is recorded as “only labeled CTSS at higher concentrations”.
